Where two headings read alike, the source gives them in different places.
Test system: HBV rcDNA in HepDE19 cells
Experiment: HepDE19 assay with bDNA quantitation of HBV rcDNA
Type: cell-based, hepatitis B virus
Details: Hepatitis B virus
[1] = HepDE19, HepDE19 assay, inhibition of rcDNA formation, bDNA quantitation, read-out: DE-19bDNA EC50

CN(C(=O)[C@H](O)Cc1ccccc1)[C@@H]1COCc2[nH]c(=O)c3cc(F)c(F)cc3c21 [Compound 88, (R)-N-((S)-8,9-Difluoro-6-oxo-1,4,5,6-tetrahydro-2H-pyrano[3,4-c]isoquinolin-1-yl)-2-hydroxy-N-methyl-3-phenylpropanamide]
EC50 [1]: 0.48 µM

CN(C(=O)c1ccccc1)[C@@H]1COCc2[nH]c(=O)c3cc(F)c(F)cc3c21 [Compound 91, (S)-N-(8,9-Difluoro-6-oxo-1,4,5,6-tetrahydro-2H-pyrano[3,4-c]isoquinolin-1-yl)-N-methylbenzamide]
EC50 [1]: 1.01 µM

CN(C(=O)c1ccc(F)c(F)c1)[C@@H]1COCc2[nH]c(=O)c3cc(F)c(F)cc3c21 [Compound 92, (S)-N-(8,9-Difluoro-6-oxo-1,4,5,6-tetrahydro-2H-pyrano[3,4-c]isoquinolin-1-yl)-3,4-difluoro-N-methylbenzamide]
EC50 [1]: 0.28 µM

CN(C(=O)[C@@](C)(O)c1ccccc1)[C@@H]1COCc2[nH]c(=O)c3cc(F)c(F)cc3c21 [Compound 93, (S)-N-((S)-8,9-Difluoro-6-oxo-1,4,5,6-tetrahydro-2H-pyrano[3,4-c]isoquinolin-1-yl)-2-hydroxy-N-methyl-2-phenylpropanamide]
EC50 [1]: 12 µM

CN(C(=O)[C@](C)(O)c1ccccc1)[C@@H]1COCc2[nH]c(=O)c3cc(F)c(F)cc3c21 [Compound 94, (R)-N-((S)-8,9-Difluoro-6-oxo-1,4,5,6-tetrahydro-2H-pyrano[3,4-c]isoquinolin-1-yl)-2-hydroxy-N-methyl-2-phenylpropanamide]
EC50 [1]: 3.2 µM

CN(C(=O)[C@@H](O)c1ccccc1)[C@@H]1COCc2[nH]c(=O)c3cc(F)c(F)cc3c21 [Compound 95, (S)-N-((S)-8,9-Difluoro-6-oxo-1,4,5,6-tetrahydro-2H-pyrano[3,4-c]isoquinolin-1-yl)-2-hydroxy-N-methyl-2-phenylacetamide]
EC50 [1]: 24 µM

CN(C(=O)[C@H](O)c1ccccc1)[C@@H]1COCc2[nH]c(=O)c3cc(F)c(F)cc3c21 [Compound 96, (R)-N-((S)-8,9-Difluoro-6-oxo-1,4,5,6-tetrahydro-2H-pyrano[3,4-c]isoquinolin-1-yl)-2-hydroxy-N-methyl-2-phenylacetamide]
EC50 [1]: 10 µM

CN(C(=O)c1cc2c(F)c(F)c(F)cc2[nH]1)[C@@H]1COCc2[nH]c(=O)c3cc(F)c(F)cc3c21 [Compound 97, (S)-N-(8,9-Difluoro-6-oxo-1,4,5,6-tetrahydro-2H-pyrano[3,4-c]isoquinolin-1-yl)-4,5,6-trifluoro-N-methyl-1H-indole-2-carboxamide]
EC50 [1]: 0.01 µM

CN(C(=O)c1ccc(C(F)(F)F)cc1)[C@@H]1COCc2[nH]c(=O)c3cc(F)c(F)cc3c21 [Compound 98, (S)-N-(8,9-Difluoro-6-oxo-1,4,5,6-tetrahydro-2H-pyrano[3,4-c]isoquinolin-1-yl)-N-methyl-4-(trifluoromethyl)benzamide]
EC50 [1]: 0.01 µM

CN(C(=O)c1ccc(Cl)cc1)[C@@H]1COCc2[nH]c(=O)c3cc(F)c(F)cc3c21 [Compound 99, (S)-4-Chloro-N-(8,9-difluoro-6-oxo-1,4,5,6-tetrahydro-2H-pyrano[3,4-c]isoquinolin-1-yl)-N-methylbenzamide]
EC50 (HepDE19, read-out: DE-19bDNA EC50 (μM)): 0.02 µM

CN(C(=O)c1ccc(C#N)c(F)c1)[C@@H]1COCc2[nH]c(=O)c3cc(F)c(F)cc3c21 [Compound 100, (S)-4-Cyano-N-(8,9-difluoro-6-oxo-1,4,5,6-tetrahydro-2H-pyrano[3,4-c]isoquinolin-1-yl)-3-fluoro-N-methylbenzamide]
EC50 [1]: 0.04 µM

CN(C(=O)c1ccc(F)c(C(F)F)c1)[C@@H]1COCc2[nH]c(=O)c3cc(F)c(F)cc3c21 [Compound 109, (S)-N-(8,9-Difluoro-6-oxo-1,4,5,6-tetrahydro-2H-pyrano[3,4-c]isoquinolin-1-yl)-3-(difluoromethyl)-4-fluoro-N-methylbenzamide]
EC50 [1]: 0.02 µM

CN(C(=O)c1ccc(C(F)F)c(F)c1)[C@@H]1COCc2[nH]c(=O)c3cc(F)c(F)cc3c21 [Compound 110, (S)-N-(8,9-Difluoro-6-oxo-1,4,5,6-tetrahydro-2H-pyrano[3,4-c]isoquinolin-1-yl)-4-(difluoromethyl)-3-fluoro-N-methylbenzamide]
EC50 [1]: 0.01 µM

CN(C(=O)c1ccc(C(F)F)cc1)[C@@H]1COCc2[nH]c(=O)c3cc(F)c(F)cc3c21 [Compound 111, (S)-N-(8,9-Difluoro-6-oxo-1,4,5,6-tetrahydro-2H-pyrano[3,4-c]isoquinolin-1-yl)-4-(difluoromethyl)-N-methylbenzamide]
EC50 [1]: 0.02 µM

CN(C(=O)c1ccc(F)c(Cl)c1)[C@@H]1COCc2[nH]c(=O)c3cc(F)c(F)cc3c21 [Compound 112, (S)-3-Chloro-N-(8,9-difluoro-6-oxo-1,4,5,6-tetrahydro-2H-pyrano[3,4-c]isoquinolin-1-yl)-4-fluoro-N-methylbenzamide]
EC50 [1]: 0.04 µM

CN(C(=O)c1nc2ccccc2s1)[C@@H]1COCc2[nH]c(=O)c3cc(F)c(F)cc3c21 [Compound 123, (S)-N-(8,9-Difluoro-6-oxo-1,4,5,6-tetrahydro-2H-pyrano[3,4-c]isoquinolin-1-yl)-N-methylbenzo[d]thiazole-2-carboxamide]
EC50 [1]: 1.5 µM

CN(C(=O)c1nc2ccccc2o1)[C@@H]1COCc2[nH]c(=O)c3cc(F)c(F)cc3c21 [Compound 124, (S)-N-(8,9-Difluoro-6-oxo-1,4,5,6-tetrahydro-2H-pyrano[3,4-c]isoquinolin-1-yl)-N-methylbenzo[d]oxazole-2-carboxamide]
EC50 [1]: 1.1 µM

CN(C(=O)c1cc(C(F)(F)F)n[nH]1)[C@@H]1COCc2[nH]c(=O)c3cc(F)c(F)cc3c21 [Compound 125, (S)-N-(8,9-Difluoro-6-oxo-1,4,5,6-tetrahydro-2H-pyrano[3,4-c]isoquinolin-1-yl)-N-methyl-3-(trifluoromethyl)-1H-pyrazole-5-carboxamide]
EC50 [1]: 0.15 µM

CN(C(=O)c1cc(-c2ccc(F)cc2)n[nH]1)[C@@H]1COCc2[nH]c(=O)c3cc(F)c(F)cc3c21 [Compound 126, (S)-N-(8,9-Difluoro-6-oxo-1,4,5,6-tetrahydro-2H-pyrano[3,4-c]isoquinolin-1-yl)-3-(4-fluorophenyl)-N-methyl-1H-pyrazole-5-carboxamide]
EC50 [1]: 21 µM

CN(C(=O)c1cccc(F)c1)[C@@H]1COCc2[nH]c(=O)c3cc(F)c(F)cc3c21 [Compound 127, (S)-N-(8,9-Difluoro-6-oxo-1,4,5,6-tetrahydro-2H-pyrano[3,4-c]isoquinolin-1-yl)-3-fluoro-N-methylbenzamide]
EC50 [1]: 0.38 µM

CN(C(=O)c1cccc(Cl)c1)[C@@H]1COCc2[nH]c(=O)c3cc(F)c(F)cc3c21 [Compound 128, (S)-3-Chloro-N-(8,9-difluoro-6-oxo-1,4,5,6-tetrahydro-2H-pyrano[3,4-c]isoquinolin-1-yl)-N-methylbenzamide]
EC50 [1]: 0.09 µM

CN(C(=O)c1cccc(Br)c1)[C@@H]1COCc2[nH]c(=O)c3cc(F)c(F)cc3c21 [Compound 129, (S)-3-Bromo-N-(8,9-difluoro-6-oxo-1,4,5,6-tetrahydro-2H-pyrano[3,4-c]isoquinolin-1-yl)-N-methylbenzamide]
EC50 [1]: 0.09 µM

CN(C(=O)c1ccc(F)c(Br)c1)[C@@H]1COCc2[nH]c(=O)c3cc(F)c(F)cc3c21 [Compound 130, (S)-3-Bromo-N-(8,9-difluoro-6-oxo-1,4,5,6-tetrahydro-2H-pyrano[3,4-c]isoquinolin-1-yl)-4-fluoro-N-methylbenzamide]
EC50 [1]: 0.01 µM

CN(C(=O)c1ccc(Br)cc1)[C@@H]1COCc2[nH]c(=O)c3cc(F)c(F)cc3c21 [Compound 131, (S)-4-Bromo-N-(8,9-difluoro-6-oxo-1,4,5,6-tetrahydro-2H-pyrano[3,4-c]isoquinolin-1-yl)-N-methylbenzamide]
EC50 [1]: 0.01 µM

CN(C(=O)c1cccc(C#N)c1)[C@@H]1COCc2[nH]c(=O)c3cc(F)c(F)cc3c21 [Compound 135, (S)-3-Cyano-N-(8,9-difluoro-6-oxo-1,4,5,6-tetrahydro-2H-pyrano[3,4-c]isoquinolin-1-yl)-N-methylbenzamide]
EC50 [1]: 0.77 µM

CN(C(=O)c1ccc(OC(F)(F)F)c(F)c1)[C@@H]1COCc2[nH]c(=O)c3cc(F)c(F)cc3c21 [Compound 136, (S)-N-(8,9-Difluoro-6-oxo-1,4,5,6-tetrahydro-2H-pyrano[3,4-c]isoquinolin-1-yl)-3-fluoro-N-methyl-4-(trifluoromethoxy)benzamide]
EC50 [1]: 0.04 µM

Cc1ccc(C(=O)N(C)[C@@H]2COCc3[nH]c(=O)c4cc(F)c(F)cc4c32)cc1F [Compound 137, (S)-N-(8,9-Difluoro-6-oxo-1,4,5,6-tetrahydro-2H-pyrano[3,4-c]isoquinolin-1-yl)-3-fluoro-N,4-dimethylbenzamide]
EC50 [1]: 0.06 µM

CN(C(=O)[C@H](O)c1cccc(Cl)c1)[C@@H]1COCc2[nH]c(=O)c3cc(F)c(F)cc3c21 [Compound 138, (R)-2-(3-Chlorophenyl)-N-((S)-8,9-difluoro-6-oxo-1,4,5,6-tetrahydro-2H-pyrano[3,4-c]isoquinolin-1-yl)-2-hydroxy-N-methylacetamide]
EC50 [1]: 1.2 µM

CN(C(=O)c1cc(F)c(C(F)(F)F)c(F)c1)[C@@H]1COCc2[nH]c(=O)c3cc(F)c(F)cc3c21 [Compound 139, (S)-N-(8,9-Difluoro-6-oxo-1,4,5,6-tetrahydro-2H-pyrano[3,4-c]isoquinolin-1-yl)-3,5-difluoro-N-methyl-4-(trifluoromethyl)benzamide]
EC50 [1]: 0.01 µM

CN(C(=O)c1csc(Cl)c1)[C@@H]1COCc2[nH]c(=O)c3cc(F)c(F)cc3c21 [Compound 140, (S)-5-Chloro-N-(8,9-difluoro-6-oxo-1,4,5,6-tetrahydro-2H-pyrano[3,4-c]isoquinolin-1-yl)-N-methylthiophene-3-carboxamide]
EC50 [1]: 0.1 µM

CN([C@@H]1COCc2[nH]c(=O)c3cc(F)c(F)cc3c21)S(=O)(=O)c1ccc(F)c(Cl)c1 [Compound 143, (S)-3-Chloro-N-(8,9-difluoro-6-oxo-1,4,5,6-tetrahydro-2H-pyrano[3,4-c]isoquinolin-1-yl)-4-fluoro-N-methylbenzenesulfonamide]
EC50 [1]: 18 µM

Reference: patent US20240228504A1, “SUBSTITUTED TRICYCLIC AMIDES, ANALOGUES THEREOF, AND METHODS USING SAME” (Arbutus Biopharma Corporation, priority 2020, published 2024)
